The values below come from ChEMBL document CHEMBL1138886, “Dissociated nonsteroidal glucocorticoid receptor modulators; discovery of the agonist trigger in a tetrahydronaphthalene-benzoxazine series” (J Med Chem, 2006).

pEC50, pIC50: −log10 of the molar value. The source made the active and inactive calls. The rule behind the calls is not given here.

Assay [1] concerns the target T1, Glucocorticoid receptor (Homo sapiens, UniProt P04150).
T1 sequence (P04150 whole entry): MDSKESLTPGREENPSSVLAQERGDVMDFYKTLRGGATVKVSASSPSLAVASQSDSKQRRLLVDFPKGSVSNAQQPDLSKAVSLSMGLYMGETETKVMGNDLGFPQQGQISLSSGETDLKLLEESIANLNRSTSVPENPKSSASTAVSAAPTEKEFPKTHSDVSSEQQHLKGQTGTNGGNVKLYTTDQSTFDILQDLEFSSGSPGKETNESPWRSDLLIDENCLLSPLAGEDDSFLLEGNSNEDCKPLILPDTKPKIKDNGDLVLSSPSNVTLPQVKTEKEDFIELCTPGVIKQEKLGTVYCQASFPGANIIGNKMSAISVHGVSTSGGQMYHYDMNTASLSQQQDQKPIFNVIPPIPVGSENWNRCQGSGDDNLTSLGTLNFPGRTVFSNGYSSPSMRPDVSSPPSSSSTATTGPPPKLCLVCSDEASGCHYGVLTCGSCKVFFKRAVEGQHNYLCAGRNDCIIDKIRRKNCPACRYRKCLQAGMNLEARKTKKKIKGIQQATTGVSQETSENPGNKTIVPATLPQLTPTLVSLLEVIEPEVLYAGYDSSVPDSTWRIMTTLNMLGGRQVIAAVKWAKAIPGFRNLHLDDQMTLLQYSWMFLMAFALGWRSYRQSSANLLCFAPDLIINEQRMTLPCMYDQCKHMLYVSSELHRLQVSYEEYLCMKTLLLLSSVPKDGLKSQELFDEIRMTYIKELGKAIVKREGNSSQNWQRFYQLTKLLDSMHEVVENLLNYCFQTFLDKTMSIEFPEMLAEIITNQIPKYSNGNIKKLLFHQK

In assay [2] the target is T1, Glucocorticoid receptor. The source holds these as a separate data set.
In assay [3] the target is T1, Glucocorticoid receptor. This is another data set of the same source.
Description: Agonist activity at GR assessed as NF-kappaB-mediated transrepression of secreted placental alkaline phosphatase gene in human A549 cells
In assay [4] the target is T1, Glucocorticoid receptor. The source holds these as a separate data set.
The species entered for assay [5] is Homo sapiens. As to the kind of experiment: Selectivity for GR over AR by functional assay.
The target of assay [6] is Estrogen receptor (Homo sapiens) (UniProt Q92731+P03372). Put plainly: Activity at ER. Format: protein assay.
Assay [7] is filed under the species Homo sapiens. Put plainly: Selectivity for GR over AR by binding assay.
Another assay concerns Mus musculus. As to the kind of experiment: Anti-inflammatory activity against oxazolone-induced ear skin delayed types hypersensitivity model in topically dosed BALB/c mouse. Type of assay: functional.
Assay [8] is filed under the species Homo sapiens. As to the kind of experiment: Selectivity for GR in NF-kappaB transrepression assay over MR antagonism. Type of assay: functional.
Assay [9] addresses T2, Glucocorticoid receptor (Homo sapiens) (UniProt P04150).
T2 sequence (whole entry): T1 sequence (P04150 whole entry)
Put plainly: Selectivity for MMTV transactivation assay over NF-kappaB transrepression assay for GR agonism in A549 cells. Format: functional, cell-based.

For assay [10], the species on record is Homo sapiens. As to the kind of experiment: Selectivity for GR over PR by binding assay.
The species entered for assay [11] is Homo sapiens. Put plainly: Selectivity for GR over PR by functional assay.

With `Cc1noc(=O)c2ccc(NC(=O)C(O)(CC3(CC(C)C)CCCc4ccccc43)C(F)(F)F)cc12` (centres undefined), the pEC50 (usually the negative decadic logarithm of the EC50, by convention in mol/L) at Glucocorticoid receptor [1] is < 6.00.

Regarding `CCC1(CC(O)(C(=O)Nc2ccc3c(=O)onc(C)c3c2)C(F)(F)F)CCCc2c([N+](=O)[O-])cccc21` (centres undefined), the pIC50 – broadly, the IC50 on a negative log10 scale, so that one unit is a factor of ten – is 6.60 against Glucocorticoid receptor [2], < 5.00 on Glucocorticoid receptor [3] and 8.30 on Glucocorticoid receptor [4].

In the case of `Cc1noc(=O)c2ccc(NC(=O)C(O)(CC3(C(C)(C)C)CCCc4ccccc43)C(F)(F)F)cc12` (centres undefined), the pIC50 at Glucocorticoid receptor [2] is 6.11; against Glucocorticoid receptor [3], < 5.00; at Glucocorticoid receptor [4], 7.94.

`Cc1noc(=O)c2ccc(NC(=O)C(O)(CC3(c4ccccc4)CCCc4ccccc43)C(F)(F)F)cc12` (centres undefined): the results for the pIC50 at Glucocorticoid receptor [2], at Glucocorticoid receptor [3] and on Glucocorticoid receptor [4] were 5.86, < 5.00 and 7.84, respectively.

Take `CCC1(CC(O)(C(=O)Nc2ccc3c(=O)onc(C)c3c2)C(F)(F)F)CCCCc2ccccc21` (centres undefined): the pIC50 was 8.10 against Glucocorticoid receptor [3] and 8.00 on Glucocorticoid receptor [4]. Further, the pEC50 on Glucocorticoid receptor [1] is < 5.00.

As for `Cc1noc(=O)c2ccc(NC(=O)[C@](O)(C[C@@]3(C4CCCC4)CCCc4ccccc43)C(F)(F)F)cc12`, the results for the pIC50 on Glucocorticoid receptor [2], against Glucocorticoid receptor [3] and on Glucocorticoid receptor [4] were 7.27, 8.69 and 8.09, respectively. Besides, the Selectivity ratio was > 50 in the assay filed under Homo sapiens [5], > 50 in the assay filed under Homo sapiens [7] and > 100 in the assay filed under Homo sapiens [8]. Moreover, in assay [6], the result was inactive. In addition, the ED50 in the assay on Mus musculus is 0.05 µg. At Glucocorticoid receptor [1], this compound gave a pEC50 of 7.75.

Turning to `Cc1noc(=O)c2ccc(NC(=O)C(O)(CC3(C4CCCCC4)CCCc4ccccc43)C(F)(F)F)cc12` (centres undefined), the pIC50 is 6.70 at Glucocorticoid receptor [2], 8.48 on Glucocorticoid receptor [3] and 8.07 on Glucocorticoid receptor [4]. In addition, the pEC50 at Glucocorticoid receptor [1] is 7.68.

As to `CCC1(CC(O)(C(=O)Nc2ccc3c(=O)onc(C)c3c2)C(F)(F)F)CCCc2cc([N+](=O)[O-])ccc21` (centres undefined), the pIC50 at Glucocorticoid receptor [2] is 6.10; on Glucocorticoid receptor [3], < 5.00; against Glucocorticoid receptor [4], 8.10.

`C[C@@H]1C[C@H]2[C@@H]3CCC4=CC(=O)C=C[C@]4(C)[C@@]3(F)[C@@H](O)C[C@]2(C)[C@@]1(O)C(=O)CO` [DEXAMETHASONE] registered an ED50 with Mus musculus of 0.27 µg.

`Cc1noc(=O)c2ccc(NC(=O)C(O)(CC3(C4CC4)CCCc4ccccc43)C(F)(F)F)cc12` (centres undefined): the pIC50 against Glucocorticoid receptor [2] was 6.69; against Glucocorticoid receptor [3], 8.02; against Glucocorticoid receptor [4], 8.33. For the same compound, the pEC50 on Glucocorticoid receptor [1] was 7.40.

As for `Cc1noc(=O)c2ccc(NC(=O)C(O)(CC3CCCc4c(N)cccc43)C(F)(F)F)cc12` (centres undefined), the pIC50 against Glucocorticoid receptor [2] was 5.70; against Glucocorticoid receptor [3], < 6.00; against Glucocorticoid receptor [4], 7.60.

With `Cc1noc(=O)c2ccc(NC(=O)C(O)(CC3(C)CCCc4ccccc43)C(F)(F)F)cc12` (stereo in doubt; 35d), the pIC50 was 6.40 at Glucocorticoid receptor [2], 7.70 against Glucocorticoid receptor [3] and 8.00 at Glucocorticoid receptor [4]. In addition, the negative logarithm of the EC50 (pEC50) on Glucocorticoid receptor [1] is < 5.00.

For `CCCC1(CC(O)(C(=O)Nc2ccc3c(=O)onc(C)c3c2)C(F)(F)F)CCCc2ccccc21` (centres undefined), the pIC50 was 7.60 at Glucocorticoid receptor [2], 8.33 at Glucocorticoid receptor [3] and 8.25 against Glucocorticoid receptor [4]. For the same compound, in [9], the Efficacy is 67%. The pEC50 at Glucocorticoid receptor [1] was 7.70.

Consider `Cc1noc(=O)c2ccc(NC(=O)C(O)(CC3CCCc4c(Cl)cccc43)C(F)(F)F)cc12` (stereo in doubt; 20b), for which the values for the pIC50 against Glucocorticoid receptor [2], against Glucocorticoid receptor [3] and against Glucocorticoid receptor [4] were 6.40, < 6.00 and 8.30, respectively.

Consider `CCCCC1(CC(O)(C(=O)Nc2ccc3c(=O)onc(C)c3c2)C(F)(F)F)CCCc2ccccc21` (centres undefined), for which the pIC50 is 8.18 against Glucocorticoid receptor [3] and 8.51 against Glucocorticoid receptor [4]. At Glucocorticoid receptor [1], the pEC50 was < 6.00.

Consider `Cc1noc(=O)c2ccc(NC(=O)C(O)(CC3(C4CCC4)CCCc4ccccc43)C(F)(F)F)cc12` (centres undefined), for which the pIC50 against Glucocorticoid receptor [2] was 6.78; against Glucocorticoid receptor [3], 8.31; against Glucocorticoid receptor [4], 8.02. Moreover, the pEC50 at Glucocorticoid receptor [1] was 7.76.

With `Cc1noc(=O)c2ccc(NC(=O)C(O)(CC3(C(C)C)CCCc4ccccc43)C(F)(F)F)cc12` (centres undefined), the pIC50 against Glucocorticoid receptor [2] is 6.89; against Glucocorticoid receptor [3], 8.53; against Glucocorticoid receptor [4], 8.32. In assay [9], this compound showed an Efficacy of 34%. At Glucocorticoid receptor [1], this compound had a pEC50 of 7.73.

For the compound `CCC1(CC(O)(C(=O)Nc2ccc3c(=O)onc(C)c3c2)C(F)(F)F)CCCc2ccc([N+](=O)[O-])cc21` (centres undefined), the pIC50 against Glucocorticoid receptor [2] is 6.50; at Glucocorticoid receptor [3], < 5.00; on Glucocorticoid receptor [4], 8.20.

Consider `CCC1(CC(O)(C(=O)Nc2ccc3c(=O)onc(C)c3c2)C(F)(F)F)CCCc2ccccc21` (centres undefined), for which the pIC50 against Glucocorticoid receptor [2] is 6.70; against Glucocorticoid receptor [3] it was 8.30; against Glucocorticoid receptor [4] it was 8.21. In addition, the ED50 with Mus musculus was determined as 5 µg. In addition, the pEC50 on Glucocorticoid receptor [1] was 8.04.

Turning to `Cc1noc(=O)c2ccc(NC(=O)C(O)(CC3CCCc4c(F)cccc43)C(F)(F)F)cc12` (centres undefined), the pIC50 against Glucocorticoid receptor [2] was 6.30; at Glucocorticoid receptor [3], < 6.00; against Glucocorticoid receptor [4], 7.80.

For `CCC(CC)C1(CC(O)(C(=O)Nc2ccc3c(=O)onc(C)c3c2)C(F)(F)F)CCCc2ccccc21` (centres undefined), the pIC50 on Glucocorticoid receptor [2] was 7.18; against Glucocorticoid receptor [3], 8.92; at Glucocorticoid receptor [4] it was 8.28. In addition, the Selectivity ratio in the assay filed under Homo sapiens [10] is 10; in the assay filed under Homo sapiens [11], 10; in the assay listed under Homo sapiens [5], > 50; in the assay listed under Homo sapiens [7] it was > 50; in the assay filed under Homo sapiens [8], > 100. Besides, in [9], the Efficacy came out at 50%. Besides, in [6], the outcome was inactive. In the assay with Mus musculus, this compound displayed an ED50 of 0.35 µg. At Glucocorticoid receptor [1], this compound had a negative-log EC50 (pEC50) of 8.20.
